# In ChEMBL document CHEMBL3885861, “Open TG-GATES”:
# Species on record: Rattus norvegicus
# Experiment: Open TG-GATES - Regimen: Single
# Format: toxicity, organism-based, Sprague-Dawley
# Set-up: regimen Single, gender Male, age 6 weeks
# Settings: in vivo, po, 3 mg/kg, route gavage, dose level Middle; for APTT / Bas / Eos / Fbg / Hb / Ht / Lym / MCH / MCHC / MCV / Mono / PT / Plat / RBC / Ret / WBC: tissue Blood; for KIDNEY_L / KIDNEY_R / KIDNEY_TOTAL: tissue Kidney; for LIVER: tissue Liver
smiles,measurement,setting,value
C#C[C@]1(O)CC[C@H]2[C@@H]3CCc4cc(O)ccc4[C@H]3CC[C@@]21C [ETHINYL ESTRADIOL],TERMINAL_BW,3 h,198.2 g
same,APTT,3 h,15.8 s
same,Bas,3 h,0%
same,Eos,3 h,1%
same,Fbg,3 h,257.8 mg/dL
same,Hb,3 h,12.9 g/dL
same,Ht,3 h,39.4%
same,Lym,3 h,75.8%
same,MCH,3 h,21.4 pg
same,MCHC,3 h,32.9%
same,MCV,3 h,65 fL
same,Mono,3 h,3.6%
same,PT,3 h,12.2 s
same,Plat,3 h,110.2 x10_4/uL
same,RBC,3 h,607 x10_4/ul
same,Ret,3 h,10.6%
same,WBC,3 h,86.9 x10_2/uL
same,KIDNEY_L,3 h,0.8 g
same,KIDNEY_R,3 h,0.8 g
same,KIDNEY_TOTAL,3 h,1.7 g
same,LIVER,3 h,8.5 g
same,ALP,"3 h, tissue Plasma",1631.6 IU/L
same,ALT,"3 h, tissue Plasma",47.8 IU/L
same,AST,"3 h, tissue Plasma",80.2 IU/L
same,BUN,"3 h, tissue Plasma",10.2 mg/dL
same,CRE,"3 h, tissue Plasma",0.2 mg/dL
same,Cl,"3 h, tissue Plasma",106.8 meq/L
same,GLC,"3 h, tissue Plasma",183.4 mg/dL
same,IP,"3 h, tissue Plasma",9.2 mg/dL
same,K,"3 h, tissue Plasma",3.8 meq/L
same,LDH,"3 h, tissue Plasma",49.2 IU/L
same,PL,"3 h, tissue Plasma",142.6 mg/dL
same,RALB,"3 h, tissue Plasma",2.5 g/dL
same,TBIL,"3 h, tissue Plasma",0.038 mg/dL
same,TC,"3 h, tissue Plasma",75.4 mg/dL
same,TP,"3 h, tissue Plasma",5.4 g/dL
same,gamma-GTP,"3 h, tissue Plasma",1.2 IU/L
same,TERMINAL_BW,6 h,195.3 g
same,APTT,6 h,14.7 s
same,Bas,6 h,0.2%
same,Eos,6 h,0.8%
same,Fbg,6 h,292.8 mg/dL
same,Hb,6 h,13 g/dL
same,Ht,6 h,38.9%
same,Lym,6 h,69.4%
same,MCH,6 h,21.9 pg
same,MCHC,6 h,33.4%
same,MCV,6 h,65.5 fL
same,PT,6 h,12.2 s
same,Plat,6 h,115.2 x10_4/uL
same,RBC,6 h,594.2 x10_4/ul
same,Ret,6 h,9.8%
same,WBC,6 h,98.2 x10_2/uL
same,KIDNEY_L,6 h,0.9 g
same,KIDNEY_R,6 h,0.9 g
same,KIDNEY_TOTAL,6 h,1.7 g
same,LIVER,6 h,8.1 g
same,ALP,"6 h, tissue Plasma",1993.6 IU/L
same,ALT,"6 h, tissue Plasma",54.6 IU/L
same,AST,"6 h, tissue Plasma",106.2 IU/L
same,BUN,"6 h, tissue Plasma",6.6 mg/dL
same,CRE,"6 h, tissue Plasma",0.2 mg/dL
same,Ca,"6 h, tissue Plasma",10.6 mg/dL
same,Cl,"6 h, tissue Plasma",110 meq/L
same,DBIL,"6 h, tissue Plasma",0.012 mg/dL
same,IP,"6 h, tissue Plasma",10.4 mg/dL
same,LDH,"6 h, tissue Plasma",44.6 IU/L
same,Na,"6 h, tissue Plasma",144.4 meq/L
same,PL,"6 h, tissue Plasma",106.4 mg/dL
same,RALB,"6 h, tissue Plasma",2.5 g/dL
same,TBIL,"6 h, tissue Plasma",0.038 mg/dL
same,TC,"6 h, tissue Plasma",51.8 mg/dL
same,TP,"6 h, tissue Plasma",5.4 g/dL
same,gamma-GTP,"6 h, tissue Plasma",1.2 IU/L
same,TERMINAL_BW,9 h,196.1 g
same,APTT,9 h,15.7 s
same,Bas,9 h,0%
same,Eos,9 h,1%
same,Fbg,9 h,261.6 mg/dL
same,Hb,9 h,12.8 g/dL
same,Ht,9 h,37.6%
same,Lym,9 h,72%
same,MCH,9 h,22.3 pg
same,MCHC,9 h,33.9%
same,MCV,9 h,65.8 fL
same,Mono,9 h,3%
same,PT,9 h,12.7 s
same,Plat,9 h,117.1 x10_4/uL
same,RBC,9 h,572.4 x10_4/ul
same,Ret,9 h,10.2%
same,WBC,9 h,81.1 x10_2/uL
same,KIDNEY_L,9 h,0.8 g
same,KIDNEY_R,9 h,0.8 g
same,KIDNEY_TOTAL,9 h,1.7 g
same,LIVER,9 h,7.6 g
same,ALP,"9 h, tissue Plasma",1530.6 IU/L
same,ALT,"9 h, tissue Plasma",36.4 IU/L
same,AST,"9 h, tissue Plasma",72 IU/L
same,BUN,"9 h, tissue Plasma",9 mg/dL
same,CRE,"9 h, tissue Plasma",0.2 mg/dL
same,Ca,"9 h, tissue Plasma",10.4 mg/dL
same,Cl,"9 h, tissue Plasma",109.2 meq/L
same,DBIL,"9 h, tissue Plasma",0.012 mg/dL
same,IP,"9 h, tissue Plasma",10.4 mg/dL
same,K,"9 h, tissue Plasma",3.7 meq/L
same,LDH,"9 h, tissue Plasma",39.6 IU/L
same,Na,"9 h, tissue Plasma",145.4 meq/L
same,PL,"9 h, tissue Plasma",95.4 mg/dL
same,RALB,"9 h, tissue Plasma",2.6 g/dL
same,TBIL,"9 h, tissue Plasma",0.048 mg/dL
same,TC,"9 h, tissue Plasma",45.4 mg/dL
same,TP,"9 h, tissue Plasma",5.3 g/dL
same,gamma-GTP,"9 h, tissue Plasma",1 IU/L
same,TERMINAL_BW,24 h,200 g
same,APTT,24 h,18.1 s
same,Bas,24 h,0%
same,Eos,24 h,1%
same,Fbg,24 h,220.8 mg/dL
same,Ht,24 h,39%
same,Lym,24 h,77.8%
same,MCH,24 h,22 pg
same,MCHC,24 h,34%
same,MCV,24 h,64.6 fL
same,Mono,24 h,4%
same,PT,24 h,13.4 s
same,Plat,24 h,110.4 x10_4/uL
same,RBC,24 h,604.4 x10_4/ul
same,Ret,24 h,8.1%
same,WBC,24 h,92.7 x10_2/uL
same,KIDNEY_L,24 h,0.9 g
same,KIDNEY_R,24 h,0.9 g
same,KIDNEY_TOTAL,24 h,1.8 g
same,LIVER,24 h,9.6 g
same,ALP,"24 h, tissue Plasma",2004.2 IU/L
same,ALT,"24 h, tissue Plasma",43 IU/L
same,AST,"24 h, tissue Plasma",70.6 IU/L
same,BUN,"24 h, tissue Plasma",10.8 mg/dL
same,CRE,"24 h, tissue Plasma",0.2 mg/dL
same,Ca,"24 h, tissue Plasma",10.8 mg/dL
same,Cl,"24 h, tissue Plasma",106.4 meq/L
same,DBIL,"24 h, tissue Plasma",0.024 mg/dL
same,IP,"24 h, tissue Plasma",7 mg/dL
same,K,"24 h, tissue Plasma",4.3 meq/L
same,LDH,"24 h, tissue Plasma",62.8 IU/L
same,PL,"24 h, tissue Plasma",106.4 mg/dL
same,RALB,"24 h, tissue Plasma",2.5 g/dL
same,TBIL,"24 h, tissue Plasma",0.042 mg/dL
same,TC,"24 h, tissue Plasma",39 mg/dL
same,TP,"24 h, tissue Plasma",5.3 g/dL
